Measurements reported in US11753399B2, “Therapeutic compounds” (Gilead Sciences, Inc., priority 2018, dated 2023).

Experiments:
MT-4 cells = assay: Test B: Cytotoxicity Assay (same protocol as Test A, uninfected cells); assay type: cell-based; details: uninfected MT-4 cells, 5 days, CellTiter-Glo
HIV-IIIb = assay: Test A: Antiviral Assay in MT4 Cells; assay type: cell-based, HIV-1; details: inhibition of virus-induced cell killing, MT-4 cells, HIV-IIIb, 5 days, values normalized to 100%; for inhibition at 0.01 µM / inhibition at 0.2 µM: Human immunodeficiency virus 1, MT4, 120 h; for inhibition at 0.01 µM: read-out: % inhibition at 0.01 μM; for inhibition at 0.2 µM: read-out: % inhibition at 0.20 μM
Outline: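 MT-4 cells infected with HIV-IIIb at m.o.i. 0.003 for 1 hour, then added at 2000 cells per well to diluted compound. Incubated 5 days at 37° C. Cell viability read as CellTiter-Glo chemiluminescence after 10 min lysis at room temperature.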

[1] = Test B: Cytotoxicity Assay (same protocol as Test A, uninfected cells); assay type: cell-based; details: human, uninfected MT-4 cells, CellTiter-Glo
[2] = from dose response curve at 0.01 μM (10 nM)
[3] = from dose response curve at 0.20 μM (200 nM)

SMILES	CC50 (MT-4 cells)	% inhibition at 0.01 μM (HIV-IIIb; [2])	% inhibition at 0.20 μM (HIV-IIIb; [3])	inhibition at 0.01 µM (HIV-IIIb; [2])	inhibition at 0.2 µM (HIV-IIIb; [3])	CC50 at 5 days [1]
CC(C)(O)c1nnc(Nc2nn(CC(F)F)c3c(-c4ccc(C#CC(C)(C)S(=O)(=O)C5CC5)nc4[C@H](Cc4cc(F)cc(F)c4)NC(=O)Cn4nc(C(F)F)c5c4C(F)(F)[C@@H]4C[C@H]54)ccc(Cl)c23)o1 [Example 25]	> 57.1 µM	100%	100%	–	–	–
CC(C)(O)c1nnc(Nc2nn(CC(F)F)c3c(-c4ccc(C#CC(C)(C)S(=O)(=O)C5CC5)nc4[C@H](Cc4cc(F)cc(F)c4)NC(=O)Cn4nc(C(F)F)c5c4C(F)(F)[C@@H]4C[C@H]54)ccc(Cl)c23)o1 [Example 24]	9.07 µM	–	–	100%	100%	–
CC1(S(=O)(=O)Nc2nn(CC(F)(F)F)c3c(-c4ccc(C#CC(C)(C)S(=O)(=O)C5CC5)nc4[C@H](Cc4cc(F)cc(F)c4)NC(=O)Cn4nc(C(F)F)c5c4C(F)(F)CCC5(F)F)ccc(Cl)c23)CC1 [Example 31]	–	–	–	97%	98%	> 57.1 µM
Cn1nc(NS(C)(=O)=O)c2c(Cl)ccc(-c3ccc(C#CC(C)(C)S(=O)(=O)C4CC4)nc3[C@H](Cc3cc(F)cc(F)c3)NC(=O)Cn3cc(C(F)(F)F)nc3C3CC3)c21 [Example 64]	–	–	–	45%	94%	> 50 µM
Cn1nc(NS(=O)(=O)CC2CC2)c2c(Cl)ccc(-c3ccc(C#CC(C)(C)S(=O)(=O)C4CC4)nc3[C@H](Cc3cc(F)cc(F)c3)NC(=O)Cn3nc(C(F)F)c4c3C(F)(F)[C@@H]3C[C@H]43)c21 [Example 14]	–	–	–	100%	100%	> 57.1 µM
